Experiments:
[1] = tested on: MSC; test: Serum-free MSC isolation from bone marrow (CFU and cell number at end of primary culture); type: cell-based
Protocol: The number of colony forming units (CFU; FIG. 6A) and cell number (FIG. 6B) was determined at the end of primary culture. An additional marrow was seeded on tissue culture plastic pre-coated with varying concentrations of fibronectin to determine optimal concentration of fibronectin required. The number of CFU (FIG. 6C) and cell yield (FIG. 6D) was determined at the end of primary culture. Controls include MSC isolation in the presence of 10% FBS or on non-coated tissue culture plastic;
The number of colony forming units (FIG. 7A) and cell number (FIG. 7B) was determined at the end of primary culture. Controls include MSC isolation in the presence of 10% FBS or on non-coated tissue culture plastic;
Initially MSC were isolated from three bone marrows to determine a suitable attachment substrate. […] A further bone marrow donor was then screened to determine the optimal fibronectin concentration; 6 μg/ml was selected as the favourable concentration (FIGS. 6C and 6D).
To examine the role of EGF in MSC isolation and attachment, 5 bone marrows were tested. MSC were isolated in the presence of FGF2 (5 ng/ml) on fibronectin coated plastic in the presence of EGF, or on tissue culture plastic in the presence of EGF.

[2] = tested on: bone marrow mononuclear cells (MNCs); test: CFU-f assay, SF medium with various lipoproteins or fibronectin; type: cell-based, human; settings: no fibronectin vs pre-coating vs fibronectin added to the medium; standard SF medium with LDL
Protocol: For the lipoprotein study, Serum Free (SF) media was prepared containing: no lipoprotein (No lipo), very low density lipoprotein (VLDL), low density lipoprotein (LDL) and high density lipoprotein (HDL). Other lipoproteins that exist are chylomicrons and intermediate density lipoprotein which were not assessed in this study as they were not commercially available at the time. MSCs were isolated from bone marrow based on plastic adherence in SF medium by plating 40×10^6 human bone marrow mononuclear cells/T-175 and culturing at 37° C., 5% CO2, 21% O2. Cells were subcultured once they had reached 80-90% confluence. MSCs were evaluated by assessing growth kinetics, tri-lineage differentiation and surface marker phenotype at the end of passage 3 (P3). For the lipoprotein study, SF medium was modified to contain one of the various lipoproteins at 80 ng/mL and these cells are seeded onto T175 flasks, which had been pre-coated with fibronectin. For the fibronectin study described, standard SF medium containing LDL (Standard Formulation) was used and cells were seeded onto T175 flasks without fibronectin, with fibronectin pre-coating or with fibronectin added to the medium itself. CFU-f assays were carried out by seeding bone marrow mononuclear cells (MNCs) at a density of 1×10^6 MNC/10 cm^2 in triplicate in 6-well plates. […]

[3] = tested on: MSCs; test: Growth kinetics of MSC cultures, lipoprotein and fibronectin study; type: cell-based, human; settings: no fibronectin vs pre-coating vs fibronectin in the medium
Protocol: MSCs were isolated from bone marrow based on plastic adherence in SF medium by plating 40×10^6 human bone marrow mononuclear cells/T-175 and culturing at 37° C., 5% CO2, 21% O2. Cells were subcultured once they had reached 80-90% confluence. MSCs were evaluated by assessing growth kinetics, tri-lineage differentiation and surface marker phenotype at the end of passage 3 (P3). For the lipoprotein study, SF medium was modified to contain one of the various lipoproteins at 80 ng/mL and these cells are seeded onto T175 flasks, which had been pre-coated with fibronectin. […]
VLDL and LDL are involved in trafficking fats to cells in arteries which may indicate why these groups had cells which formed more disperse healthier looking CFU-fs. […] Applying these CFU-f numbers with cell yields at the end of each passage, growth curves were calculated. […]
The final aim of this work was to determine if fibronectin is required for isolation and establishment of MSC cultures in the proprietary serum-free medium. […] This was assessed by looking at CFU-f numbers and growth kinetics of cells isolated from bone marrow directly onto tissue culture plastic without fibronectin, onto tissue culture plastic pre-coated with fibronectin and finally with fibronectin incorporated into the medium itself.

[4] = tested on: MSC; test: Growth/proliferation of MSC isolated in 10% FBS and re-attached under serum-free conditions; type: cell-based; settings: fibronectin-coated; for MSC proliferation in serum free medium containing FGF2 (5 ng/ml): 5 days; for MSC proliferation in serum free medium: over 3 passages, days 5, 10 and 15
Protocol: Tissue culture flasks were pre-coated with FN (black), HA (blue), VN (red) or LN (green) and cells were allowed to adhere in serum-free conditions. Cell numbers were obtained after 5 days. Controls include serum-free plating without the presence of an ECM attachment factor and 10% FBS (grey). Results are representative of 3 biological replicates with n=2;
Cells were then cultured in the presence of growth factors and passaged every 5 days. Controls include serum free plating without growth factors and 10% FBS. Results are representative of 3 biological replicates with n=2;
Cells were then cultured in serum-free media containing FGF2 (5 ng/ml) in the presence of PGE2, cholesterol or lipoprotein for 5 days. Controls include serum free plating without growth factors 10% FBS (A). Cells were then cultured in the presence of lipoprotein and passaged every 5 days for 3 passages, controls include serum free plating without lipoprotein (B). Results are representative of 3 biological replicates with n=2;
(§1) Proliferation of the MSC attached in the presence of basic fibroblast growth factor (bFGF2, FGF2) was also assessed after 6 days.
Serum-free basal medium formulation was selected based on the literature describing low-serum cell culture of dental pulp stem cells (Tarle et al., 2010). The basal medium was composed of ITS (1%, BD), ascorbic acid (10 mM, Sigma Aldrich), dexamethasone (10 nM, Sigma Aldrich), human serum albumin (50 mg/ml, Sigma Aldrich), penicillin/streptomycin solution (1%, Gibco) and MEM-α (Gibco). The effect of a range of growth factors on MSC proliferation was then examined. MSC were attached on fibronectin-coated tissue culture plastic for 48 hours in serum-free basal medium.
The effect of FGF2/FGF4 and FGF7 (1, 5 and 10 ng/ml), PDGFaa/PDGFab and PDGFbb (1, 5 and 10 ng/ml) on MSC proliferation over 3 passages on days 5, 10 and 15 was examined.
To further enhance MSC viability and proliferation lipoprotein was added to the serum-free basal medium. MSC isolated in the presence of serum were seeded on fibronectin-coated tissue culture plastic in serum free medium containing FGF2. Initially a range of factors were screened to support MSC viability after trypsinisation; the effect of prostoglandin E2 (PGE2; 50 μg/ml), cholesterol (30 μg/ml) and lipoprotein (4 μg/ml) on MSC proliferation in serum free medium containing FGF2 (5 ng/ml) was examined.

[5] = tested on: MSC; test: Attachment of MSC isolated in 10% FBS and re-attached under serum-free conditions; type: cell-based; settings: EGF 10 ng/ml, serum free with FGF2, 3 passages
Text: Tissue culture flasks were pre-coated with fibronectin (FN; black), hylauronic acid (HA; blue), vitronectin (VN; red) or laminin (LN; green) and cells were allowed to adhere in serum-free conditions. Controls include serum-free plating without the presence of an extra-cellular matrix (ECM) attachment factor and 10% FBS (grey). Results are representative of 3 biological replicates with n=2;
MSC were attached on tissue culture flasks in the presence of EGF (red) or on tissue culture plastic precoated with FN (purple) or in the presence of EGF on fibronectin coated plastic (green) and passaged every 3 days. Controls include serum free plating without the presence of an ECM attachment factor (blue) and 10% FBS (black). Results are representative of 3 biological replicates with n=2;
as §1

[6] = three bone marrows, attachment substrate vs vitronectin and hyaluronic acid

fibronectin
requirement for MSC attachment ([1]; 5 bone marrows, FGF2 5 ng/ml, with EGF, coated vs uncoated plastic): required | cell number at the end of the first passage [1, 6]: greatest cell number | colony forming units [1, 6]: more colony forming units | ability of CFU-fs to form / CFU-f numbers with or without fibronectin [2]: No difference | growth kinetics of the MSC cultures with or without fibronectin [3]: unaffected

CCCCC[C@H](O)/C=C/[C@H]1[C@H](O)CC(=O)[C@@H]1C/C=C\CCCC(=O)O [PGE2, prostoglandin E2, reference compound]
MSC proliferation in serum free medium containing FGF2 (5 ng/ml) ([4]; 50 μg/ml): inhibitory effect

PDGFab: growth factor PDGFab
MSC proliferation in serum free medium ([4]; 10 ng/ml): increased MSC proliferation

FGF2: basic fibroblast growth factor
MSC proliferation in serum free medium ([4]; 5 ng/ml): increased MSC proliferation

EGF: epidermal growth factor
MSC attachment over passaging [5]: increased MSC attachment

CC(C)CCC[C@@H](C)[C@H]1CC[C@H]2[C@@H]3CC=C4C[C@@H](O)CC[C@]4(C)[C@H]3CC[C@]12C [cholesterol, reference compound]
MSC proliferation in serum free medium containing FGF2 (5 ng/ml) ([4]; 30 μg/ml): inhibitory effect
